Assay results published in paper PMC9780703, “Unconventional interactions of the TRPV4 ion channel with beta-adrenergic receptor ligands” (Life Science Alliance, 2022).
pKd: −log10 of the molar value. Counter-ions that a name gives are not always drawn. Like-named read-outs stand apart in the source and are kept apart here.

Assays:
Type in all cases: cell-based
TRPV4 [1] = target: T1, TRPV4 (Homo sapiens, UniProt Q9HBA0); assay: outside-out patch clamp of HEK293 cells expressing hTRPV4, % inhibition of GSK-activated current at […]
T1 construct: full-length wild type, transiently transfected HEK293, outside-out patches
T1 sequence (Q9HBA0 whole entry): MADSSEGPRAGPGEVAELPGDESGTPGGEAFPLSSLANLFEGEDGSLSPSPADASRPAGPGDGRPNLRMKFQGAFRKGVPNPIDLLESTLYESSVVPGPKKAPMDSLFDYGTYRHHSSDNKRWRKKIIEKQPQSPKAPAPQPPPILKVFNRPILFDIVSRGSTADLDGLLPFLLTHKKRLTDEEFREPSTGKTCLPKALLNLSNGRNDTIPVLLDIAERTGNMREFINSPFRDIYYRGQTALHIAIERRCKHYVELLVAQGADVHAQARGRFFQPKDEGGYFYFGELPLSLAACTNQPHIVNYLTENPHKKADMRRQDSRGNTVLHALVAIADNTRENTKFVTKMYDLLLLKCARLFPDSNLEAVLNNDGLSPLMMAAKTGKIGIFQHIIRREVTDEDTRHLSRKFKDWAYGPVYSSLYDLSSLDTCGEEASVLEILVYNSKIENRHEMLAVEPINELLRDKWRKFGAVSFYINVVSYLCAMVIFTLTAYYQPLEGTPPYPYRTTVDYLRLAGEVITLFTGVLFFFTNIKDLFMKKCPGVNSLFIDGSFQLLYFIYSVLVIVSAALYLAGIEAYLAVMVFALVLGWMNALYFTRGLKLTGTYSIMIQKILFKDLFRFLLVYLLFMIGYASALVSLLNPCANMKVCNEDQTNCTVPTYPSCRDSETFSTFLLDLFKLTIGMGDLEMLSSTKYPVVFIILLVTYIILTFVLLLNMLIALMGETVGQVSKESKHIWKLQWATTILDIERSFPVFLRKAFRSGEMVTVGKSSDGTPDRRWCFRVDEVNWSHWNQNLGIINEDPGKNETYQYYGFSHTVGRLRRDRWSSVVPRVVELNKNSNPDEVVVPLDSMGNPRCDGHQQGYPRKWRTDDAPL

TRPV4 [2] = target: T1, TRPV4; assay: outside-out patch clamp of HEK293 cells expressing hTRPV4, dose-response, single-channel recordings and site-directed mutagenesis (apparent KD from Hill fit)
TRPV4 [3] = target: T1, TRPV4; assay: outside-out patch clamp of HEK293 cells expressing hTRPV4, % inhibition of GSK-activated current at […]; remark: listed apart in the source
TRPV4 [4] = target: T1, TRPV4; assay: as above; remark: listed apart in the source
TRPV4 [5] = target: T1, TRPV4; assay: outside-out patch clamp of HEK293 cells expressing hTRPV4, inhibition of GSK-activated currents, dose-response (apparent KD from Hill fit)
TRPV4 [6] = target: T1, TRPV4; assay: outside-out patch clamp of HEK293 cells expressing hTRPV4, activation dose-response (KD from Hill fit)
TRPV4 [7] = target: T1, TRPV4; assay: outside-out patch clamp of HEK293 cells expressing hTRPV4, % inhibition of GSK-activated current at […]; remark: listed apart in the source
TRPV4 [8] = target: T1, TRPV4; assay: as above; remark: listed apart in the source

CC(C)NCC(O)c1cc(O)cc(O)c1 (stereo not drawn) [metaproterenol, α-[(isopropylamino)methyl]-3,5-dihydroxybenzyl alcohol hemisulfate salt] gave an inhibition at 500 µM (TRPV4 [1]) of 51.7%.
CC(C)(C)NCC(O)c1ccc(O)c(CO)c1 (racemic) [salbutamol, α1-[(tert-butylamino)methyl]-4-hydroxy-1,3-benzenedimethanol hemisulfate salt] was tested, and the pKd (TRPV4 [2]) was 4.09.
CC(C)NCC(O)c1ccc(O)c(O)c1 (centres unmarked) [isoprenaline, 1-[3′,4′-dihydroxyphenyl]-2-isopropylaminoethanol hydrochloride] showed an inhibition at 500 µM (TRPV4 [3]) of 51.6%.
With CC(C)(C)NCC(O)c1cc(O)cc(O)c1 (centres unmarked) [terbutaline, 5-[2-[(1,1-dimethylethyl)amino]-1-hydroxyethyl]-1,3-benzenediol hemisulfate salt] the inhibition at 500 µM (TRPV4 [4]) was 54.4%.
In the case of Cc1ccc(OC[C@H](O)[C@@H](C)NC(C)C)c2c1CCC2 (relative stereo) [ICI, [2R,3R]-rel-3-isopropylamino-1-[7-methylindan-4-yloxy]-butan-2-ol hydrochloride], the pKd (TRPV4 [5]) was 5.41.
Work on CC(C)C[C@H](NC(=O)c1cc2ccccc2s1)C(=O)N1CCN(C(=O)[C@H](CO)NS(=O)(=O)c2ccc(Cl)cc2Cl)CC1 [GSK, GSK1016790A] yielded a pKd (TRPV4 [6]) of 7.00.
With CC(C)(C)NCC(O)c1cc(Cl)c(N)c(Cl)c1 (stereo not drawn) [clenbuterol, 4-amino-α-[t-butylaminomethyl]-3,5-dichlorobenzyl alcohol hydrochloride] the inhibition at 500 µM (TRPV4 [7]) was 71.7%.
Work on CC(C)(C)NC[C@H](O)c1ccc(O)c(CO)c1 [levalbuterol] yielded an inhibition at 500 µM (TRPV4 [8]) of 42.6%.
